Results taken from patent publication US20250195463A1, “ORGANOMETALLIC COMPLEX, CONTROLLED-RELEASE MULTI-FUNCTIONAL DRUG, PHARMACEUTICAL COMPOSITION, PROCESSES FOR THE PREPARATION THEREOF AND THEIR USE” (FACULDADE DE CIÊNCIAS DA UNIVERSIDADE DE LISBOA, priority 2022, published 2025).

Experiments:
[1] = Stability in aqueous medium (dimethyl sulfoxide/Dulbecco's Modified Eagle Medium) by UV-Vis spectroscopy; type: physicochemical; conditions: 5% dimethyl sulfoxide/95% Dulbecco's Modified Eagle Medium; for Relative variation of the maximum absorbance of the π→π* transitions: band 292-296 nm (λmax in column head); for Relative variation of the maximum absorbance of the charge transfer bands: band 358-400 nm (λmax in column head)
How it was run: (§1)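 UV-Vis spectra (270-900 nm) were recorded at intervals from 0 to 24 h, at room temperature in the dark. Solvents were 100% DMSO, or 5% or 10% DMSO in DMEM depending on complex, at 7.0×10^-5 M to 3.0×10^-4 M.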

MDA-MB-231 (FGFR−) = assay: MTT cytotoxicity assay; conditions: MDA-MB-231; for IC50 range in words: Example 24; for IC50: read-out: Cytotoxic activity expressed as IC50, Table 5, 48 h, 37° C.
How it was run: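 Cells were exposed continuously for 48 h at 37 °C to compounds at 0.1 to 100 μM. In pH-controlled runs, RuPC1 stock was pre-incubated 48 h at pH 6.8 or 7.4, then tested at 0.1 to 50 μM. Viability was read by MTT (0.5 mg/mL, 3 h) absorbance at 570 nm versus untreated cells, with IC50 fitted.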

[2] = Stability in organic medium (dimethyl sulfoxide) by UV-Vis spectroscopy; type: physicochemical; conditions: for Relative variation of the maximum absorbance of the π→π* transitions: band 289-300 nm (λmax in column head); for Relative variation of the maximum absorbance of the charge transfer bands: band 357-425 nm (λmax in column head)
How it was run: as §1

CCC(=O)C1=C[CH]([Ru-]2([PH](c3ccccc3)(c3ccccc3)c3ccccc3)[n+]3ccccc3-c3cccc[n+]32)C=C1.O=S(=O)([O-])C(F)(F)F (centres unmarked) [compound 8]
Relative variation of the maximum absorbance of the π→π* transitions ([1]; time 0 h): 0.0% | Relative variation of the maximum absorbance of the charge transfer bands ([1]; time 0 h): 0.0% | Relative variation of the maximum absorbance of the π→π* transitions ([1]; time 0.25 h): −0.1% | Relative variation of the maximum absorbance of the charge transfer bands ([1]; time 0.25 h): −0.3% | Relative variation of the maximum absorbance of the π→π* transitions ([1]; time 0.5 h): −0.2% | Relative variation of the maximum absorbance of the charge transfer bands ([1]; time 0.5 h): −0.6% | Relative variation of the maximum absorbance of the π→π* transitions ([1]; time 0.75 h): 0.0% | Relative variation of the maximum absorbance of the charge transfer bands ([1]; time 0.75 h): −0.7% | Relative variation of the maximum absorbance of the π→π* transitions ([1]; time 1 h): −0.1% | Relative variation of the maximum absorbance of the charge transfer bands ([1]; time 1 h): −0.9% | Relative variation of the maximum absorbance of the π→π* transitions ([1]; time 2 h): 0.0% | Relative variation of the maximum absorbance of the charge transfer bands ([1]; time 2 h): −0.7% | Relative variation of the maximum absorbance of the π→π* transitions ([1]; time 3 h): 0.1% | Relative variation of the maximum absorbance of the charge transfer bands ([1]; time 3 h): −0.6% | Relative variation of the maximum absorbance of the π→π* transitions ([1]; time 4 h): 0.0% | Relative variation of the maximum absorbance of the charge transfer bands ([1]; time 4 h): −0.6% | Relative variation of the maximum absorbance of the π→π* transitions ([1]; time 5 h): 0.1% | Relative variation of the maximum absorbance of the charge transfer bands ([1]; time 5 h): −0.6% | Relative variation of the maximum absorbance of the π→π* transitions ([1]; time 6 h): 0.1% | Relative variation of the maximum absorbance of the charge transfer bands ([1]; time 6 h): −0.5% | Relative variation of the maximum absorbance of the π→π* transitions ([1]; time 24 h): 6.0% | Relative variation of the maximum absorbance of the charge transfer bands ([1]; time 24 h): −0.9% | IC50 range in words (MDA-MB-231 (FGFR−)): sub-micromolar range | IC50 (MDA-MB-231 (FGFR−)): 560 nM | Relative variation of the maximum absorbance of the π→π* transitions ([2]; time 0 h): 0.0% | Relative variation of the maximum absorbance of the charge transfer bands ([2]; time 0 h): 0.0% | Relative variation of the maximum absorbance of the π→π* transitions ([2]; time 0.25 h): 0.0% | Relative variation of the maximum absorbance of the charge transfer bands ([2]; time 0.25 h): 0.0% | Relative variation of the maximum absorbance of the π→π* transitions ([2]; time 0.5 h): 0.2% | Relative variation of the maximum absorbance of the charge transfer bands ([2]; time 0.5 h): 0.1% | Relative variation of the maximum absorbance of the π→π* transitions ([2]; time 0.75 h): 0.0% | Relative variation of the maximum absorbance of the charge transfer bands ([2]; time 0.75 h): 0.0% | Relative variation of the maximum absorbance of the π→π* transitions ([2]; time 1 h): 0.1% | Relative variation of the maximum absorbance of the charge transfer bands ([2]; time 1 h): 0.3% | Relative variation of the maximum absorbance of the π→π* transitions ([2]; time 2 h): 0.0% | Relative variation of the maximum absorbance of the charge transfer bands ([2]; time 2 h): 0.2% | Relative variation of the maximum absorbance of the π→π* transitions ([2]; time 3 h): −0.3% | Relative variation of the maximum absorbance of the charge transfer bands ([2]; time 3 h): 0.0% | Relative variation of the maximum absorbance of the π→π* transitions ([2]; time 4 h): −0.1% | Relative variation of the maximum absorbance of the charge transfer bands ([2]; time 4 h): 0.0% | Relative variation of the maximum absorbance of the π→π* transitions ([2]; time 5 h): −0.1% | Relative variation of the maximum absorbance of the charge transfer bands ([2]; time 5 h): −0.3% | Relative variation of the maximum absorbance of the π→π* transitions ([2]; time 6 h): −0.2% | Relative variation of the maximum absorbance of the charge transfer bands ([2]; time 6 h): 0.3% | Relative variation of the maximum absorbance of the π→π* transitions ([2]; time 24 h): −0.2% | Relative variation of the maximum absorbance of the charge transfer bands ([2]; time 24 h): 0.2%

CC(=O)C1=C[CH]([Ru-]2([PH](c3ccccc3)(c3ccccc3)c3ccccc3)[n+]3ccccc3-c3cccc[n+]32)C=C1.O=S(=O)([O-])C(F)(F)F (centres unmarked) [compound 5]
Relative variation of the maximum absorbance of the π→π* transitions ([1]; time 0 h): 0.0% | Relative variation of the maximum absorbance of the charge transfer bands ([1]; time 0 h): 0.0% | Relative variation of the maximum absorbance of the π→π* transitions ([1]; time 0.25 h): 0.6% | Relative variation of the maximum absorbance of the charge transfer bands ([1]; time 0.25 h): −1.0% | Relative variation of the maximum absorbance of the π→π* transitions ([1]; time 0.5 h): −0.1% | Relative variation of the maximum absorbance of the charge transfer bands ([1]; time 0.5 h): −2.1% | Relative variation of the maximum absorbance of the π→π* transitions ([1]; time 0.75 h): 0.3% | Relative variation of the maximum absorbance of the charge transfer bands ([1]; time 0.75 h): −2.7% | Relative variation of the maximum absorbance of the π→π* transitions ([1]; time 1 h): 0.0% | Relative variation of the maximum absorbance of the charge transfer bands ([1]; time 1 h): −3.4% | Relative variation of the maximum absorbance of the π→π* transitions ([1]; time 2 h): 1.0% | Relative variation of the maximum absorbance of the charge transfer bands ([1]; time 2 h): −1.2% | Relative variation of the maximum absorbance of the π→π* transitions ([1]; time 3 h): 0.7% | Relative variation of the maximum absorbance of the charge transfer bands ([1]; time 3 h): −3.4% | Relative variation of the maximum absorbance of the π→π* transitions ([1]; time 4 h): 0.7% | Relative variation of the maximum absorbance of the charge transfer bands ([1]; time 4 h): −4.1% | Relative variation of the maximum absorbance of the π→π* transitions ([1]; time 5 h): 0.7% | Relative variation of the maximum absorbance of the charge transfer bands ([1]; time 5 h): −5.1% | Relative variation of the maximum absorbance of the π→π* transitions ([1]; time 6 h): 2.1% | Relative variation of the maximum absorbance of the charge transfer bands ([1]; time 6 h): 0.3% | Relative variation of the maximum absorbance of the π→π* transitions ([1]; time 24 h): −1.8% | Relative variation of the maximum absorbance of the charge transfer bands ([1]; time 24 h): −3.0% | IC50 range in words (MDA-MB-231 (FGFR−)): sub-micromolar range | IC50 (MDA-MB-231 (FGFR−)): 360 nM | Relative variation of the maximum absorbance of the π→π* transitions ([2]; time 0 h): 0.0% | Relative variation of the maximum absorbance of the charge transfer bands ([2]; time 0 h): 0.0% | Relative variation of the maximum absorbance of the π→π* transitions ([2]; time 0.25 h): 0.3% | Relative variation of the maximum absorbance of the charge transfer bands ([2]; time 0.25 h): 0.1% | Relative variation of the maximum absorbance of the π→π* transitions ([2]; time 0.5 h): −0.5% | Relative variation of the maximum absorbance of the charge transfer bands ([2]; time 0.5 h): 0.0% | Relative variation of the maximum absorbance of the π→π* transitions ([2]; time 0.75 h): −0.4% | Relative variation of the maximum absorbance of the charge transfer bands ([2]; time 0.75 h): 0.2% | Relative variation of the maximum absorbance of the π→π* transitions ([2]; time 1 h): −0.3% | Relative variation of the maximum absorbance of the charge transfer bands ([2]; time 1 h): 0.1% | Relative variation of the maximum absorbance of the π→π* transitions ([2]; time 2 h): −0.9% | Relative variation of the maximum absorbance of the charge transfer bands ([2]; time 2 h): 0.3% | Relative variation of the maximum absorbance of the π→π* transitions ([2]; time 3 h): −1.2% | Relative variation of the maximum absorbance of the charge transfer bands ([2]; time 3 h): 0.3% | Relative variation of the maximum absorbance of the π→π* transitions ([2]; time 4 h): −1.2% | Relative variation of the maximum absorbance of the charge transfer bands ([2]; time 4 h): 0.3% | Relative variation of the maximum absorbance of the π→π* transitions ([2]; time 5 h): −1.5% | Relative variation of the maximum absorbance of the charge transfer bands ([2]; time 5 h): 0.5% | Relative variation of the maximum absorbance of the π→π* transitions ([2]; time 6 h): −1.5% | Relative variation of the maximum absorbance of the charge transfer bands ([2]; time 6 h): 0.2% | Relative variation of the maximum absorbance of the π→π* transitions ([2]; time 24 h): −1.9% | Relative variation of the maximum absorbance of the charge transfer bands ([2]; time 24 h): 0.3%
